# Measurements: US8466201B2, “Potassium ion channel modulators and uses thereof” (Ramot at Tel-Aviv University ltd., priority 2007, dated 2013)
# Biological target: KCNQ2/KCNQ3 potassium channel current expressed in mammalian cells (Homo sapiens, UniProt O43525+O43526)
# Assay: KCNQ2/KCNQ3 current enhancement, automated parallel patch-clamp (PatchXpress 7000A)
# Assay type: cell-based
# Conditions: mean±s.e.m
# Description: The objective of this study was to examine the in vitro effects of the Example compounds on the KCNQ2/KCNQ3 potassium channel current expressed in mammalian cells using the PatchXpress 7000A (Molecular Devices), an automatic parallel patch-clamp system. The test compounds were evaluated at 30 or 10 μM (n≦2). The duration of exposure to the test compound was 5 minutes. […] The results for a positive control, flupirtine (Table 2) applied to naïve cells in the same study confirm the sensitivity of the test system to detect KCNQ2/KCNQ3 current enhancement.
# All experiments were performed at ambient temperature. Each cell acted as its own control.
# A 30 μM or 10 μM concentration of test compound was applied via disposable polyethylene micropipette tips to naïve cells. Each solution exchange, performed in quadruplicate, consisted of aspiration and replacement of 45 μL of the total 50 μL volume of the extracellular well of the Sea/chip16.
# Vehicle was applied to naïve cells (n≦2), for a 5 minute exposure interval.
# Each solution exchange, performed in quadruplicate, consisted of aspiration and replacement of 45 μL of the total 50 μL volume of the extracellular well of the Sea/chip16. After vehicle application, the positive control was applied in the same manner, to verify sensitivity of the assay.
# In preparation for a recording session, intracellular solution was loaded into the intracellular compartments of the Sea/chip16 planar electrode. Cell suspension was pipetted into the extracellular compartments of the Sea/chip16 planar electrode. After establishment of the whole-cell configuration, membrane currents were recorded using dual-channel patch-clamp amplifiers in the PatchXpress® system. Before digitization, the current records were low-pass filtered at one-fifth of the sampling frequency.
# Data acquisition and analysis were performed using the pCLAMP suite of programs (Axon Instruments, Union City, Calif.). The steady-state current before and after test article application was used to calculate the percentage current enhancement at each concentration. The results obtained from different cells were averaged and presented as mean±s.e.m (see Tables 1 and 2).
# [1] = 30 μM test compound, 5 minutes exposure, ambient temperature
Compound,Mean % Enhancement of KCNQ2/KCNQ3 [1],further results
"CCOC(=O)Nc1ccc(NCc2ccc(F)cc2)nc1N [Flupirtine, flupirtine, reference compound]",–,"Mean % Enhancement of KCNQ2/KCNQ3 (positive control, 10 μM, applied after vehicle to naïve cells): 127 ± 16%"
"O=S(=O)(Cc1ccccc1Nc1c(Cl)cccc1Cl)NCCOCCO [Example 1, 1-[2-(2,6-Dichlorophenylamino)phenyl]-N-[2-(2-hydroxyethoxy)ethyl]-methanesulfonamide]",32.4 ± 18%,–
"O=S(=O)(NCCO)c1cc(Nc2c(Cl)cc(Cl)cc2Cl)ccc1Cl [Example 18, 2-Chloro-N-(2-hydroxyethyl)-5-(2,4,6-trichlorophenylamino)benzensulfonamide]",–,"Mean % Enhancement of KCNQ2/KCNQ3 (10 μM test compound, 5 minutes exposure, ambient temperature): 18.6 ± 4%"
"O=S(=O)(NCCO)c1ccccc1Nc1c(Cl)cccc1Cl [Example 9, N-(2-Hydroxyethyl)-2-(2,6-dichlorophenylamino)-benzenesulfonamide]",56.8 ± 9%,–

# Second part, led by results:
Mean % Enhancement of KCNQ2/KCNQ3 [1],Compound,further results
41.2 ± 9%,"O=S(=O)(NCCO)c1ccccc1Nc1c(Cl)cc(Cl)cc1Cl [Example 8, N-(2-Hydroxyethyl)-2-(2,4,6-trichlorophenylamino)-benzenesulfonamide]",–
87.4 ± 14%,"O=S(=O)(NCCO)c1cccc(Nc2c(Cl)cc(Cl)cc2Cl)c1 [Example 16, N-(2-Hydroxyethyl)-3-(2,4,6-trichlorophenylamino)-benzenesulfonamide]",–
